Test results published in patent US20210000917A1, “METHODS AND COMPOSITION FOR THE TREATMENT OF ALLERGIC ASTHMA” (INSERM (Institut National de la Santé et de la Recherche …, priority 2018, published 2021).

B1: Der p 2.2: polypeptide consisting of the amino acid sequence 71 to 146 of SEQ ID NO: 1 (Der p 2 fragment) (protein, listed as Dermatophagoides pteronyssinus)
chain: IKASIDGLEVDVPGIDPNACHYMKCPLVKGQQYDIKYTWNVPKIAPKSENVVVTVKVMGDDGVLACAIATHAKIRD

Key:
[1] = system: mouse model of HDM-induced asthma; assay: BAL cell counts by flow cytometry in mouse model of HDM-induced asthma; format: in vivo, BALB/c female mice; conditions: 20 μg peptide in Alum subcutaneously on day 30 and day 34, BAL day 38
Method: BALB/c female mice aged 6 to 8 weeks were purchased from Charles River Breeding Laboratories and used for all experiments. The animals were housed in UTE IRS-UN platform (Nantes, France). The mice were maintained under specific pathogen-free, temperature-controlled conditions under a strict 12-hour light-dark cycle and were given free access to food and water. The mice were sensitized on days 0, 7, 14 and 21 by percutaneous application of 500 μg of total extract of Dermatophagoïdes farinae (HDM) (Stallergenes, Antony, France) in 20 μl of dimethylsulfoxide (Sigma- Aldrich, St Louis, Mo.) on the ears without any synthetic adjuvant. The mice were challenged intranasally with 250 μg of HDM (House Dust Mite) in 40 μl of sterile PBS on day 27, 28 and 29 to induce asthma and again on days 35, 36 and 37 to induce asthma exacerbation. Animals were anesthetized with 100 μg of xylazine (ROMPUN 2%, Bayer, Lyon, France, 15 mg/kg) intraperitoneally and 100 μl of ketamine (IMALGENE100, Merial, Lyon, France, 80 mg/kg) for both sensitizations and challenges. […] For dynamic lung resistance measurements, mice were anesthetized with 200 μl of a ketamine-xylazine mix and paralyzed with 100 μl of rocuronium bromide (ESMERON, Organon, Kloosterstraat, The Netherlands, 10 mg/ml) intraperitoneally.
(§1) Derivative peptide (Derp 2.1) was purified as previously described by Chen et al. 1Peptide was injected on day 30 after de third challenge and on day 34 before the fourth challenge. Derp 2.1 was solubilized with sterile PBS to a final concentration of 100 μg/ml. pproximately 200 μl of a solution of Alum (Imject Alum, Thermo Scientific) containing 20 μg of the peptide was injected subcutaneously in the neck of the mice.
One milliliter of sterile PBS was administered to mice through a flexible catheter. Cells and supernatants from the removed fluid were separated by centrifugation. The total cell number was determined by using flow cytometry (see below). Supernatants were stored at −20° C.
For analysis of BAL cells, the following antibodies were used: CD3 PE-Cy7, F4/80 FITC (eBioscience); CCR3 APC (R&D Systems) and Ly6G-PerCP Cy5.5 (BD Biosciences). Stained cells resuspended in PBS were acquired on a BD LSR II (BD Biosciences) and were analyzed on FlowJo software (Tree Star). To study lung, mediastinal lymph nodes (mLN) and spleen T-cell responses, these organs were removed and mechanically disrupted in RPMI 1640 media. Cells were passed through a 40 μm filter. Red blood cells from lung and spleen were lysed with a solution of Red Blood Cells lysis (Sigma Aldrich). Cells from mLN, lung and spleen were transferred to a 96-wells round-bottom plate and were stimulated for 5 hours with a mix containing phorbol 12-myristate 13-acetate (50 ng/ml) and ionomycin (500 ng/ml; Sigma-Aldrich) together. […]

[2] = system: mouse model of HDM-induced asthma; assay: Airway hyperresponsiveness measurement (flexiVent, methacholine) in mouse model of HDM-induced asthma; format: in vivo, BALB/c female mice; conditions: for respiratory function (airway resistances and elastance to increasing doses of methacholine): 20 μg peptide in Alum subcutaneously on day 30 and day 34, measured day 38, vs asthmatic-like (HDM) mice
Method: (§2) BALB/c female mice aged 6 to 8 weeks were purchased from Charles River Breeding Laboratories and used for all experiments. The animals were housed in UTE IRS-UN platform (Nantes, France). The mice were maintained under specific pathogen-free, temperature-controlled conditions under a strict 12-hour light-dark cycle and were given free access to food and water. The mice were sensitized on days 0, 7, 14 and 21 by percutaneous application of 500 μg of total extract of Dermatophagoïdes farinae (HDM) (Stallergenes, Antony, France) in 20 μl of dimethylsulfoxide (Sigma- Aldrich, St Louis, Mo.) on the ears without any synthetic adjuvant. The mice were challenged intranasally with 250 μg of HDM (House Dust Mite) in 40 μl of sterile PBS on day 27, 28 and 29 to induce asthma and again on days 35, 36 and 37 to induce asthma exacerbation. Animals were anesthetized with 100 μg of xylazine (ROMPUN 2%, Bayer, Lyon, France, 15 mg/kg) intraperitoneally and 100 μl of ketamine (IMALGENE100, Merial, Lyon, France, 80 mg/kg) for both sensitizations and challenges. Mice were sacrified by […] injection of dolethal (vetoquinol) on day 39 (FIG. 1A). For dynamic lung resistance measurements, mice were anesthetized with 200 μl of a ketamine-xylazine mix and paralyzed with 100 μl of rocuronium bromide (ESMERON, Organon, Kloosterstraat, The Netherlands, 10 mg/ml) intraperitoneally.
as §1
Dynamic lung resistances were measured using a flexiVent (SCIREQ, Emka). Mice were anesthetized and connected via an endotracheal cannula to a flexiVent system. […] Airway resistances wee continuously monitored and recorded according to manufacturer's instructions.

[3] = cited from earlier work; for in vivo allergenic activity and allergenicity: compared with the Derp 2 allergen; for immunogenicity: in vivo
Der p 2-specific IgE = Der p 2-specific IgE level in mouse model of HDM-induced asthma; format: in vivo, BALB/c female mice; conditions: 20 μg peptide in Alum subcutaneously on day 30 and day 34; FIG. 1E serum level
Method: as §2, with “intraperitoneally. […]” for “intraperitoneally.”

[4] = system: mouse model of HDM-induced asthma; assay: Treg and natural killer cells by flow cytometry in mouse model of HDM-induced asthma; format: in vivo, BALB/c female mice; conditions: 20 μg peptide in Alum subcutaneously on day 30 and day 34
Method: BALB/c female mice aged 6 to 8 weeks were purchased from Charles River Breeding Laboratories and used for all experiments. The animals were housed in UTE IRS-UN platform (Nantes, France). The mice were maintained under specific pathogen-free, temperature-controlled conditions under a strict 12-hour light-dark cycle and were given free access to food and water. The mice were sensitized on days 0, 7, 14 and 21 by percutaneous application of 500 μg of total extract of Dermatophagoïdes farinae (HDM) (Stallergenes, Antony, France) in 20 μl of dimethylsulfoxide (Sigma- Aldrich, St Louis, Mo.) on the ears without any synthetic adjuvant. The mice were challenged intranasally with 250 μg of HDM (House Dust Mite) in 40 μl of sterile PBS on day 27, 28 and 29 to induce asthma and again on days 35, 36 and 37 to induce asthma exacerbation. Animals were anesthetized with 100 μg of xylazine (ROMPUN 2%, Bayer, Lyon, France, 15 mg/kg) intraperitoneally and 100 μl of ketamine (IMALGENE100, Merial, Lyon, France, 80 mg/kg) for both sensitizations and challenges. […]
For analysis of BAL cells, the following antibodies were used: CD3 PE-Cy7, F4/80 FITC (eBioscience); CCR3 APC (R&D Systems) and Ly6G-PerCP Cy5.5 (BD Biosciences). Stained cells resuspended in PBS were acquired on a BD LSR II (BD Biosciences) and were analyzed on FlowJo software (Tree Star). […]

| Molecule | eosinophils in BAL [1] | neutrophils in BAL [1] | eosinophils in BAL ([1]; listed as derp2.1) | neutrophils in BAL ([1]; listed as derp2.1) | respiratory function (airway resistances and elastance to increasing doses of methacholine) [2] | respiratory function (airway resistances and elastance to increasing doses of methacholine) ([2]; listed as derp2.1) | airway hyperresponsiveness and asthma exacerbations ([2]; summary statement comparing Derp 2.1 with Der p 2.2) | in vivo allergenic activity and allergenicity [3] | immunogenicity [3] | Derp2 specific IgE (Der p 2-specific IgE) | regulators lymphocytes T (Treg cells) ([4]; FIG. 1F frequency of lung Treg cells) | natural killer cells ([4]; FIG. 1G number of lung natural killer cells) |
| --- | --- | --- | --- | --- | --- | --- | --- | --- | --- | --- | --- | --- |
| Derp2.1: polypeptide having a sequence consisting of amino acids 18 to 70 of SEQ ID NO: 1 (Der p 2 fragment); rDer p 2.1 is the recombinant form from E. coli (DQVDVKDCANHEIKKVLVPGCHGSEPCIIHRGKPFQLEAVFEANQNTKTAKIE; listed as Dermatophagoides pteronyssinus) | reduced | reduced | reduction | reduction | improved | respiratory improvement | enables to decrease airway hyperresponsiveness and prevent asthma exacerbations | less in vivo allergenic activity and allergenicity than the Derp 2 allergen | preserved immunogenicity | reduction | increase | reduction |
| B1 | – | – | – | – | – | – | – | less in vivo allergenic activity and allergenicity than the Derp 2 allergen | preserved immunogenicity | – | – | – |
